From patent publication US5424196A, “Enzymatic process for preparing 7-aminocephalosporanic acid and derivatives” (Antibioticos S.p.A., priority 1990, dated 1995)

What was measured:
[1] = molecular target: T1, D-amino acid oxidase (DAO; EC-1.4.3.3) from Rhodotorula gracilis ATCC 26217 (Rhodotorula toruloides, UniProt P80324); assay: Substrate specificity (Km) of D-amino acid oxidase; assay type: biochemical; conditions: compared with D-alanine, the specific substrate for this enzyme
T1 construct: production of Rhodotorula gracilis cells of high DAO enzyme content; made in house; host or cells: Rhodotorula gracilis ATCC 26217 (natural producer, aerobic fermentation)
T1 sequence (P80324 25-368): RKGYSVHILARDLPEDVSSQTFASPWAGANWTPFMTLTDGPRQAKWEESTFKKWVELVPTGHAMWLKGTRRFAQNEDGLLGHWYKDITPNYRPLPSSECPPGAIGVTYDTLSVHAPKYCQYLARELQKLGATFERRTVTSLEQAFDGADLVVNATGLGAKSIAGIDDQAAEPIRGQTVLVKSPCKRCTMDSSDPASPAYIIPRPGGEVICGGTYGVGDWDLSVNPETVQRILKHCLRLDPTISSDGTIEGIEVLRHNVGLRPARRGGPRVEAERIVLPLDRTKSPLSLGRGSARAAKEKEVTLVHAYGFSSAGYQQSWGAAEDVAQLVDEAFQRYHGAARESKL
Method: The activity of the D-amino acid oxidase enzyme is evaluated by measuring the H2 O2 quantity evolved on reacting the enzyme on a substrate of D-alanine in 100 mM phosphate buffer at pH 7.5 saturated with oxygen at 37° C.
The H2 O2 is determined kinetically using a peroxidase-based reactant, 4-aminophenazone and 2,4-dichlorophenolsulphonate by the modified Trinder reaction (J. Clin. Path. 22, 246, 1969). The red colour which forms (quinonimine) is proportional to the hydrogen peroxide evolved in the test and is measured spectrophotometrically at 510 nm.
One unit of D-amino acid oxidase is that quantity of enzyme (free or immobilized) which under the conditions used in the method produces one μmole of H2 O2 per minute.

[2] = molecular target: T1, D-amino acid oxidase (DAO; EC-1.4.3.3) from Rhodotorula gracilis ATCC 26217; assay: Dissociation constant of the FAD cofactor from D-amino acid oxidase; assay type: binding; conditions: read-out: dissociation constant (bond with the FAD)

## CC(=O)OCC1=C(C(=O)O)N2C(=O)[C@@H](NC(=O)CCC[C@@H](N)C(=O)O)[C@H]2SC1 [Cephalosporin C]
[1]
  Km: very similar to those encountered for D-alanine

## Cc1cc2nc3c(=O)[nH]c(=O)nc-3n(C[C@H](O)[C@H](O)[C@H](O)COP(=O)(O)OP(=O)(O)OC[C@H]3O[C@@H](n4cnc5c(N)ncnc54)[C@H](O)[C@@H]3O)c2cc1C [FAD]
[2]
  Kd: 0.022 µM
